We go through 50 compounds from patent US20240376092A1 (priority 2021, published 2024).

In one assay the test system is HEK293 cells expressing ΔCR PrP. As to the kind of experiment: cells. The assay is classed as cell-based. Also noted: Emax: dose or concentration left out as unconfirmed. To be noted: HEK293, 48 h, read-out: % RMAX: maximum rescuing effect, expressed as percentage of the effect of SM3(LD24) at the same concentration.
Regarding `C=CCNC(=O)CN1c2ccc(Br)cc2-c2ccccc2S1(=O)=O` [SM164], the Emax stood at 53.7%.

The assay is the same for the next values; noted with them: HEK293, 48 h; 1 μM; read-out: % RMAX: maximum rescuing effect, expressed as percentage of the effect of SM3(LD24) at the same concentration.
For the compound `O=C(CN1c2cccc(Cl)c2-c2ccccc2S1(=O)=O)NC1CCCCC1` [SM585, 2-(10-chloro-5,5-dioxido-6H-dibenzo[c,e][1,2]thiazin-6-yl)-N-cyclohexylacetamide], the Emax at 1 µM worked out at 71.7%.

For `CN(C(=O)CN1c2ccc(Br)cc2-c2ccccc2S1(=O)=O)C1CCCCC1` [SM8, 2-(9-Bromo-5,5-dioxido-6H-dibenzo[c,e][1,2]thiazin-6-yl)-N-cyclohexyl-N-methylacetamide], the Emax at 1 µM was 46.2%.

As for `O=C(CN1c2cc(C(F)(F)F)ccc2-c2ccccc2S1(=O)=O)NC1CCCCC1` [SM338, N-cyclohexyl-2-[5,5-dioxido-8-(trifluoromethyl)-6H-dibenzo[c,e][1,2]thiazin-6-yl]acetamide], the Emax at 1 µM amounted to 87.6%.

Take `O=C(CN1c2ccc(Br)cc2-c2ccccc2S1(=O)=O)NCc1ccccn1` [SM176]: the Emax at 1 µM came to 37.9%.

For the compound `O=C(CN1c2ccc(F)cc2-c2ccccc2S1(=O)=O)NC12CC3CC(CC(C3)C1)C2` [SM224], the Emax at 1 µM was determined as 71.5%.

Turning to `O=C(CN1c2ccc(Br)cc2-c2ccccc2S1(=O)=O)NCCCn1ccnc1` [SM220], the Emax at 1 µM was determined as 51.7%.

For `O=C(CN1c2ccc(Br)cc2-c2ccccc2S1(=O)=O)NCC1CCCO1` (stereo not drawn) [SM172], the Emax at 1 µM amounted to 40.6%.

Turning to `O=C(CN1c2ccc(Br)cc2-c2ccccc2S1(=O)=O)NCc1ccccc1` [SM166], the Emax at 1 µM was found to be 48.6%.

In the case of `CC(C)(C)NC(=O)CN1c2ccc(Br)cc2-c2ccccc2S1(=O)=O` [SM177], the Emax at 1 µM is 58.4%.

Regarding `O=C(CN1c2ccc(Br)cc2-c2ccccc2S1(=O)=O)Nc1ccccc1` [SM6, 2-(9-bromo-5,5-dioxo-6H-dibenzo[c,e][1,2]thiazin-6 (5H)-yl)-N-phenylacetamide], the Emax at 1 µM came out at 48.1%.

`O=C(CN1c2ccc(Br)cc2-c2ccccc2S1(=O)=O)NC1CCCCCCC1` [SM162]: the Emax at 1 µM was determined as 71.8%.

Turning to `O=C(CN1c2ccc(Br)cc2-c2ccccc2S1(=O)=O)NC1CC1` [SM165], the Emax at 1 µM was 65.6%.

Turning to `O=C(CN1c2ccccc2-c2ccccc2S1(=O)=O)NC1CCCCC1` [SM7, 2-(5,5-dioxido-6H-dibenzo[c,e][1,2]thiazin-6-yl)-N-cyclohexylacetamide], the Emax at 1 µM is 55.9%.

Consider `O=C(CN1c2cccc(C(F)(F)F)c2-c2ccccc2S1(=O)=O)NC1CCCCC1` [SM339, N-cyclohexyl-2-[5,5-dioxido-10-(trifluoromethyl)-6H-dibenzo[c,e][1,2]thiazin-6-yl]acetamide], for which the Emax at 1 µM is 112%.

Turning to `O=C(CN1c2ccc(Br)cc2-c2ccccc2S1(=O)=O)NCCN1CCOCC1` [SM178], the Emax at 1 µM is 44%.

For the compound `CC(C)C(NC(=O)CN1c2ccc(Br)cc2-c2ccccc2S1(=O)=O)C(C)C` [SM223], the Emax at 1 µM was 54.7%.

Turning to `CN(C)CCOc1ccc2c(c1)-c1ccccc1S(=O)(=O)N2CC(=O)NC1CCCCC1` [SM230, N-Cyclohexyl-2-[9-[2-(dimethylamino)ethoxy]-5,5-dioxido-6H-dibenzo[c,e][1,2]thiazin-6-yl]acetamide], the Emax at 1 µM came to 44.9%.

For the compound `CCC(C)NC(=O)CN1c2ccc(Br)cc2-c2ccccc2S1(=O)=O` (stereo not drawn) [SM175], the Emax at 1 µM came out at 66.2%.

As for `O=C(CN1c2ccc(Br)cc2-c2ccccc2S1(=O)=O)NC1CCCC1` [SM4, 2-(9-Bromo-5,5-dioxido-6H-dibenzo[c,e][1,2]thiazin-6-yl)-N-cyclopentylacetamide], the Emax at 1 µM amounted to 66.6%.

As to `O=C(CN1c2ccc(C(F)(F)F)cc2-c2ccccc2S1(=O)=O)Nc1ccnc(Cl)c1` [SM880, N-(2-chloropyridin-4-yl)-2-[5,5-dioxido-9-(trifluoromethyl)-6H-dibenzo[c,e][1,2]thiazin-6-yl]acetamide], the Emax at 1 µM was found to be 78.3%.

As to `CC(C)c1ccc2c(c1)-c1ccccc1S(=O)(=O)N2CC(=O)NC1CCCCC1` [SM180], the Emax at 1 µM stood at 44%.

For the compound `CC(C)CNC(=O)CN1c2ccc(Br)cc2-c2ccccc2S1(=O)=O` [SM174], the Emax at 1 µM worked out at 56.3%.

As to `O=C(CN1c2ccc(Br)cc2-c2ccccc2S1(=O)=O)Nc1cccnc1` [SM221], the Emax at 1 µM stood at 44.9%.

As for `O=C(CN1c2ccc(C(F)(F)F)cc2-c2ccccc2S1(=O)=O)N[C@H]1CC[C@H](O)CC1` [SM588, 2-[5,5-dioxido-9-(trifluoromethyl)-6H-dibenzo[c,e][1,2]thiazin-6-yl]-N-(trans-4-hydroxycyclohexyl)acetamide], the Emax at 1 µM was found to be 10.6%.

Regarding `CC(C)NC(=O)CN1c2ccc(Br)cc2-c2ccccc2S1(=O)=O` [SM169], the Emax at 1 µM came to 59.1%.

`Cc1cccc(NC(=O)CN2c3ccc(Br)cc3-c3ccccc3S2(=O)=O)c1` [SM171]: the Emax at 1 µM worked out at 102%.

As to `O=C(CN1c2cc(Cl)c(F)cc2-c2ccccc2S1(=O)=O)NC1CCCCC1` [SM336, 2-(8-chloro-9-fluoro-5,5-dioxido-6H-dibenzo[c,e][1,2]thiazin-6-yl)-N-cyclohexylacetamide], the Emax at 1 µM was 119%.

Regarding `O=C(CN1c2cc(Cl)ccc2-c2ccccc2S1(=O)=O)NC1CCCCC1` [SM586, 2-(8-chloro-5,5-dioxido-6H-dibenzo[c,e][1,2]thiazin-6-yl)-N-cyclohexylacetamide], the Emax at 1 µM was determined as 181%.

Take `O=C(CN1c2ccc(Br)cc2-c2ccccc2S1(=O)=O)NC1CCCCCC1` [SM5, 2-(9-Bromo-5,5-dioxido-6H-dibenzo[c,e][1,2]thiazin-6-yl)-N-cycloheptylacetamide]: the Emax at 1 µM stood at 52.8%.

With `O=C(CN1c2ccc(Cl)cc2-c2ccccc2S1(=O)=O)NC1CCCCC1` [SM254, 2-(9-chloro-5,5-dioxido-6H-dibenzo[c,e][1,2]thiazin-6-yl)-N-cyclohexylacetamide], the Emax at 1 µM was determined as 127%.

As to `O=C(CN1c2c(Br)cccc2-c2ccccc2S1(=O)=O)NC1CCCCC1` [SM227, 2-(7-Bromo-5,5-dioxido-6H-dibenzo[c,e][1,2]thiazin-6-yl)-N-cyclohexylacetamide], the Emax at 1 µM is 41.1%.

`CSc1ccc2c(c1)-c1ccccc1S(=O)(=O)N2CC(=O)NC1CCCCC1` [SM340, N-cyclohexyl-2-[9-(methylthio)-5,5-dioxido-6H-dibenzo[c,e][1,2]thiazin-6-yl]acetamide]: the Emax at 1 µM was found to be 23%.

Take `O=C(CN1c2ccc(Br)cc2-c2ccccc2S1(=O)=O)NCCC1=CCCCC1` [SM173]: the Emax at 1 µM came out at 66%.

Turning to `O=C(CN1c2ccc(O)cc2-c2ccccc2S1(=O)=O)NC1CCCCC1` [SM226, N-Cyclohexyl-2-(9-hydroxy-5,5-dioxido-6H-dibenzo[c,e][1,2]thiazin-6yl)acetamide], the Emax at 1 µM came out at 37.9%.

`O=S1(=O)c2ccccc2-c2cc(Br)ccc2N1CCNC1CCCCC1` [SM9, N-[2-(9-bromo-5,5-dioxido-6H-dibenzo[c,e][1,2]thiazin-6-yl)ethyl]cyclohexanamine]: the Emax at 1 µM was determined as 45.2%.

On to `O=C(CN1c2ccc(Br)cc2-c2ccccc2S1(=O)=O)Nc1c(F)cccc1F` [SM163], for which the Emax at 1 µM is 104%.

`O=C(CCN1c2ccc(Br)cc2-c2ccccc2S1(=O)=O)NC1CCCCC1` [SM10, 3-(9-Bromo-5,5-dioxido-6H-dibenzo[c,e][1,2]thiazin-6-yl)-N-cyclohexylpropanamide]: the Emax at 1 µM was found to be 45.1%.

Turning to `O=C(CN1c2ccc(Br)cc2-c2ccccc2S1(=O)=O)NCc1ccco1` [SM167], the Emax at 1 µM is 56.6%.

`O=C(CN1c2ccc(F)c(Cl)c2-c2ccccc2S1(=O)=O)NC1CCCCC1` [SM337, 2-(10-chloro-9-fluoro-5,5-dioxido-6H-dibenzo[c,e][1,2]thiazin-6-yl)-N-cyclohexylacetamide]: the Emax at 1 µM was found to be 109%.

In the case of `Cc1ccc2c(c1)-c1ccccc1S(=O)(=O)N2CC(=O)NC1CCCCC1` [SM181], the Emax at 1 µM is 59.4%.

With `O=C(CN1c2ccc(F)cc2-c2ccccc2S1(=O)=O)NC1CCCC1` [SM219], the Emax at 1 µM was 54%.

For the compound `COCCNC(=O)CN1c2ccc(Br)cc2-c2ccccc2S1(=O)=O` [SM170], the Emax at 1 µM came out at 36.9%.

Consider `O=C(CN1c2ccc(C(F)(F)F)cc2-c2ccccc2S1(=O)=O)N[C@H]1CC[C@H](OS(=O)(=O)c2ccc([N+](=O)[O-])cc2)CC1` [SM589, trans-4-({2-[5,5-dioxido-9-(trifluoromethyl)-6H-dibenzo[c,e][1,2]thiazin-6-yl]acetyl}amino)cyclohexyl 4-nitrobenzenesulfonate], for which the Emax at 1 µM worked out at 116%.

Turning to `COc1ccc2c(c1)-c1ccccc1S(=O)(=O)N2CC(=O)NC1CCCCC1` [SM225, N-Cyclohexyl-2-(9-methoxy-5,5-dioxido-6H-dibenzo[c,e][1,2]thiazin-6-yl)acetamide], the Emax at 1 µM turned out to be 61.5%.

As to `O=C(CN1c2ccc(Br)cc2-c2ccccc2S1(=O)=O)Nc1ccc(F)cc1` [SM222], the Emax at 1 µM turned out to be 85.1%.

For `Cc1n[nH]c2c1N(CC(=O)NC1CCCCC1)S(=O)(=O)c1ccccc1-2` [SM879, N-cyclohexyl-2-(3-methyl-5,5-dioxidopyrazolo[4,3-c][1,2]benzothiazin-4 (1H)-yl)acetamide], the Emax at 1 µM was 22.5%.

Consider `CC(C)(C)NC(=O)CN1c2ccc(Cl)cc2-c2ccccc2S1(=O)=O` [SM179], for which the Emax at 1 µM came out at 59.8%.

With `O=C(CN1c2cc(Cl)cc(Cl)c2-c2ccccc2S1(=O)=O)NC1CCCCC1` [SM587, N-cyclohexyl-2-(8,10-dichloro-5,5-dioxido-6H-dibenzo[c,e][1,2]thiazin-6-yl)acetamide], the Emax at 1 µM was determined as 168%.

For the compound `CC(=O)c1cccc(NC(=O)CN2c3ccc(Br)cc3-c3ccccc3S2(=O)=O)c1` [SM168], the Emax at 1 µM was found to be 46.2%.

The assay is the same for the next values; noted with them: HEK293, read-out: IC50 (rescuing dose at 50%).
As usually defined, the IC50 is the midpoint of a concentration-inhibition curve. For `O=C(CN1c2cccc(C(F)(F)F)c2-c2ccccc2S1(=O)=O)NC1CCCCC1` [SM339, N-cyclohexyl-2-[5,5-dioxido-10-(trifluoromethyl)-6H-dibenzo[c,e][1,2]thiazin-6-yl]acetamide], the IC50 stood at 340 nM.

Take `O=C(CN1c2cc(Cl)c(F)cc2-c2ccccc2S1(=O)=O)NC1CCCCC1` [SM336, 2-(8-chloro-9-fluoro-5,5-dioxido-6H-dibenzo[c,e][1,2]thiazin-6-yl)-N-cyclohexylacetamide]: the IC50 was 100 nM.

On to `O=C(CN1c2cc(Cl)ccc2-c2ccccc2S1(=O)=O)NC1CCCCC1` [SM586, 2-(8-chloro-5,5-dioxido-6H-dibenzo[c,e][1,2]thiazin-6-yl)-N-cyclohexylacetamide], for which the 50% inhibitory concentration (IC50) was determined as 350 nM.

Turning to `O=C(CN1c2ccc(Cl)cc2-c2ccccc2S1(=O)=O)NC1CCCCC1` [SM254, 2-(9-chloro-5,5-dioxido-6H-dibenzo[c,e][1,2]thiazin-6-yl)-N-cyclohexylacetamide], the IC50 was 300 nM.

`O=C(CN1c2ccc(F)c(Cl)c2-c2ccccc2S1(=O)=O)NC1CCCCC1` [SM337, 2-(10-chloro-9-fluoro-5,5-dioxido-6H-dibenzo[c,e][1,2]thiazin-6-yl)-N-cyclohexylacetamide]: the IC50 was 970 nM.

On to `O=C(CN1c2ccc(C(F)(F)F)cc2-c2ccccc2S1(=O)=O)N[C@H]1CC[C@H](OS(=O)(=O)c2ccc([N+](=O)[O-])cc2)CC1` [SM589, trans-4-({2-[5,5-dioxido-9-(trifluoromethyl)-6H-dibenzo[c,e][1,2]thiazin-6-yl]acetyl}amino)cyclohexyl 4-nitrobenzenesulfonate], for which the IC50 was found to be 1050 nM.

On to `O=C(CN1c2cc(Cl)cc(Cl)c2-c2ccccc2S1(=O)=O)NC1CCCCC1` [SM587, N-cyclohexyl-2-(8,10-dichloro-5,5-dioxido-6H-dibenzo[c,e][1,2]thiazin-6-yl)acetamide], for which the IC50 amounted to 600 nM.
